The subject of assay [1] is Leigh syndrome patient cells (LS^ND3). The assay is described as follows: Test I: suppression of BSO-induced cell death, Leigh syndrome patient cells. The format is cell-based, human. As to conditions: 100 μM BSO alone or coadded with inhibitor (1 μM; GSK872 1-10 μM, v-VAD 1, 10 μM), 48 hours; FIG. 1B, 3B.
Excerpt: (§1) In the drawing, the abscissa depicts test compounds, and the ordinate depicts the cell viability (%) of each treated plot when the number of live cells in a control non-supplemented with BSO is defined as 100%.
as §1

For assay [2] the test system is unchanged. The assay is described as follows: Test I: suppression of RSL-3-induced cell death, Leigh syndrome patient cells. The format is cell-based, human. As to conditions: 50 nM RSL-3 alone or coadded with inhibitor, 48 hours, FIG. 2B, 4B.
Excerpt: (§2) In the drawing, the abscissa depicts test compounds, and the ordinate depicts the cell viability (%) of each treated plot when the number of live cells in a control non-supplemented with RSL-3 is defined as 100%.
as §2

Assay [3] relates to normal cells (Promo1 cells). The experiment in a line: Test I: RSL-3 and test compounds on normal cells. The format is cell-based, human. The following applies: RSL-3 alone or coadded with inhibitor, 48 hours; FIG. 4A, 8A.
Excerpt: as §2, §2, §2

In assay [4] the test system is mitochondrial cardiomyopathy patient cells (ME250-1). The experiment in a line: Test I: suppression of BSO-induced cell death, mitochondrial cardiomyopathy patient cells. Format: cell-based, human. The following applies: 50-200 μM BSO alone or coadded with drug; FIG. 5B.
The test system is the same in assay [5]. The assay is described as follows: Test I: suppression of RSL-3-induced cell death, mitochondrial cardiomyopathy patient cells. Format: cell-based, human. The following applies: 10-140 nM RSL-3 alone or coadded with drug; FIG. 8B.
Excerpt: as §2

For assay [6], the system named is mitochondrial hepatopathy patient cells (ME263-1). The assay is described as follows: Test I: suppression of RSL-3-induced cell death, mitochondrial hepatopathy patient cells. Format: cell-based, human. As to conditions: 10-140 nM RSL-3 coadded with drug; FIG. 9B.
Assay [7] has as its system Kearns-Sayre syndrome (KSS) patient cells (ME130-1). The experiment in a line: Test I: suppression of RSL-3-induced cell death, KSS patient cells. Format: cell-based, human. The following applies: 10-140 nM RSL-3 coadded with drug; FIG. 10B.
A further assay addresses dopamine D2 receptor (Homo sapiens (Human), UniProt P14416). The assay is described as follows: Test IV: dopamine D2 receptor binding activity (GeneBLAzer D2-Gqo5-NEAT-bla CHO-K1 Cell-based Assay). The following applies: CHO-K1 reporter cells, 5 hours. The method, then:
In this test, the dopamine D2 receptor binding activity of each test compound was measured using GeneBLAzer D2-Gqo5-NEAT-bla CHO-K1 Cell-based Assay (Thermo Fisher Scientific, Inc.). The CHO cells are designed such that a signal transduction pathway is activated by addition of a drug to express a reporter gene (P lactamase). […] Therefore, the binding activity of the test compound can be measured by measuring a blue fluorescence/green fluorescence ratio. The CHO cells were inoculated at 10,000 cells/well to a 384-well plate and cultured for 16 to 20 hours in a CO2 incubator. […] A substrate mix was added to the cells and incubated at room temperature for 2 hours. […] The respective EC50 values of the test compounds were determined from the measured fluorescence ratios using GraphPad Prism 8.

The subject of assay [8] is human liver cancer cell line (Huh7). The assay is described as follows: Test V: suppression of RSL-3-induced cell death in liver cancer cell system (LDH, MTT). The format is cell-based. Details: key to LDH (LDH activity, cell death): relative to control without RSL-3 (= 1). The following applies: for cell death induced by RSL-3 (in words): Huh7, RSL-3 0.5 μM. The method, then:
The ferroptosis inducer used was RSL-3.
At the stage where 70% confluency was attained, the medium was replaced with the medium for the test, and DMSO or each test compound (final concentration of GSK872: 5 μM, and final concentration of the other compounds: 1 μM) was added to the cells in each well, which were then cultured for 1 hour. Then, the ferroptosis inducer (final concentration: 0.5 μM) was added to the cells in each well, which were then cultured for 24 hours. After the completion of culture, cell death suppressive activity was measured with lactate dehydrogenase (LDH) activity as an index while cell proliferation and cell viability were measured with activity of reducing yellow tetrazolium salt (MTT) into formazan as an index.
The values in the table are relative values when the LDH activity and MTT value of a control non-supplemented with RSL-3 are each defined as 1.

Another assay relates to SH-SY5Y cells. The experiment in a line: Test VI: inhibition of rotenone-induced neuronal death (LDH assay). Format: cell-based, human. Details: key: ++: the case where a concentration-dependent inhibitory effect on rotenone-induced cell death was able to be confirmed twice; +: In the third test, the case where the concentration-dependent inhibitory effect was able to be confirmed; ±: the case where no concentration-dependent inhibitory effect was able to be confirmed; −: The case where any inhibitory effect on rotenone-induced cell death was able to be confirmed in none of the two tests. As to conditions: rotenone 1 μM, compound 10 nM-10 μM (Apo 0.1 nM-10 μM), 48 hours. The method, then: After the completion of culture, rotenone-induced cell death was measured using Cytotoxicity LDH Assay Kit-WST (Dojindo Laboratories). […] The test was conducted twice, and the case where a concentration-dependent inhibitory effect on rotenone-induced cell death was able to be confirmed twice was rated as (++). If the inhibitory effect was confirmed in one of the two tests and no inhibitory effect was confirmed in the other test, the third test was conducted. In the third test, the case where the concentration-dependent inhibitory effect was able to be confirmed was rated as (+), and the case where no concentration-dependent inhibitory effect was able to be confirmed was rated as (±). The case where any inhibitory effect on rotenone-induced cell death was able to be confirmed in none of the two tests was rated as (−).

For assay [9], the system named is Kearns-Sayre syndrome (KSS) patient cells (ME130-1). The assay is described as follows: Test I: suppression of BSO-induced cell death, KSS patient cells. As to conditions: BSO coadded with drug; FIG. 7B.
The subject of assay [10] is mitochondrial hepatopathy patient cells (ME263-1). The assay is described as follows: Test I: suppression of BSO-induced cell death, mitochondrial hepatopathy patient cells. The following applies: 50-200 μM BSO coadded with drug; FIG. 6B.
[11] abbreviates: Huh7, test compound 1 μM (GSK872 5 μM) 1 hour, then RSL-3 0.5 μM 24 hours, relative value, control non-supplemented with RSL-3 = 1.

Data on two compounds can be found in US12441734B2, “Ferroptosis inhibitor and use therefor” (JICHI MEDICAL UNIVERSITY, priority 2021, dated 2025).

Entries after “also recorded” stand apart in the source; their conditions may differ.

Sequence of dopamine D2 receptor (P14416 whole entry): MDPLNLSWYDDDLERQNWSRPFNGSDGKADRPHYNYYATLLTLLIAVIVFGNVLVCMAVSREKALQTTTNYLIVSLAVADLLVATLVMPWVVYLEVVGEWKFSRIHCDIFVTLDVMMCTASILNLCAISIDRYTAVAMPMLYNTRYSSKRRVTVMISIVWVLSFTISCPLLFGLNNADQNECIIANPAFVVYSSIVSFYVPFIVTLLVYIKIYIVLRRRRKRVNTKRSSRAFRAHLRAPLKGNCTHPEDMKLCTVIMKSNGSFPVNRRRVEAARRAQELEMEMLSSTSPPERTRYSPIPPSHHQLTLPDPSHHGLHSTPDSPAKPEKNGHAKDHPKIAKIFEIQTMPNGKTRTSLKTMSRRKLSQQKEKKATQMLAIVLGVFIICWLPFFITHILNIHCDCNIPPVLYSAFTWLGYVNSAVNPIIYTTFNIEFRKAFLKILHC

In the case of `CN1CCc2cccc3c2[C@H]1Cc1ccc(O)c(O)c1-3` [Apomorphine, apomorphine], the “cell death induced by BSO (cell viability)” value in [1] is recorded as “suppressed”; in [4], “suppressed”; in assay [9], “the same or similar results”; in assay [10], “the same or similar results”. Besides, the “cell death induced by RSL-3 (cell viability)” value in [2] (listed as Apo) is on record as “the same or similar results; also recorded: same or similar tendency as above was more strongly confirmed”; in [5], “suppressed”; in assay [6], “the same or similar results”; in assay [7], “the same or similar results”. For the same compound, in assay [3], the “cell death (cell viability) in normal cells, RSL-3” value is reported as “suppressed”. In addition, the “Dopamine D2 receptor binding activity, Activity intensity” value on dopamine D2 receptor is “++”. In assay [8] (Homo sapiens, Huh-7, Huh7, test compound 1 μM (GSK872 5 μM) 1 hour, then RSL-3 0.5 μM 24 hours, relative value, control non-supplemented with RSL-3 = 1, read-out: MTT (cell proliferation and cell viability)), the viability at 1 µM was 67%. For the same compound, the “cell death induced by RSL-3 (in words)” value in assay [8] is given as “suppressed”. Further, in [8] (setting [11]), the “LDH (LDH activity, cell death)” value is on record as 1.82. Further, the “Inhibitory effect on rotenone-induced cell death” value in the assay on SH-SY5Y cells is “±”.

`CCOC(=O)c1ccc(NC2CCCCC2)c(N)c1` [Fer-1, ferrostatin-1]: the “cell death induced by BSO (cell viability)” value in assay [1] was “suppressed”. For the same compound, the “cell death induced by RSL-3 (cell viability)” value in assay [2] is reported as “the same or similar results; also recorded: same or similar tendency as above was more strongly confirmed”; in [5], “suppressed”; in [6], “the same or similar results”; in assay [7], “the same or similar results”. In assay [3], the “cell death (cell viability) in normal cells, RSL-3” value was “suppressed”. Moreover, the “cell death induced by RSL-3 (in words)” value in assay [8] is “suppressed”. In assay [8] (setting [11]), the “LDH (LDH activity, cell death)” value stood at 2.50. Also, the “MTT (cell proliferation and cell viability)” value in assay [8] (setting [11]) turned out to be 0.86.
